According to patent publication US12472187B2, “Texaphyrin-Pt(IV) conjugates and compositions for use in overcoming platinum resistance” (BOARD OF REGENTS, THE UNIVERSITY OF TEXAS SYSTEM, priority 2014, dated 2025):

Legend:
A2780 cells = conditions: platinum sensitive A2780 cells; data from Arambula, et al., 2012; cited from earlier work
2780CP cells [1] = conditions: cisplatin resistant 2780CP cells; data from Arambula, et al., 2012; cited from earlier work
2780CP cells [2] = assay: MTT (tetrazolium dye reduction) proliferation assay, cisplatin resistant 2780CP cells; type: cell-based, human; conditions: ratio of IC50 in 2780CP to A2780; rows for cisplatin and 2 rest on cited IC50
Protocol: The A2780 line was established from a patient's biopsy prior to initiation of any chemotherapeutic regimen (Godwin, et al., 1992). The resistant cell line, 2780CP, used in this study, was established from A2780 cells, as described by Siddik, et al., 1998. The two cell lines have wild-type p53 genotype and/or function. Cells were grown in RPMI containing 10% fetal calf serum and antibiotics (100 μg/mL streptomycin and 100 U/mL penicillin).
The proliferation of exponential phase cultures of A2780 and 2780CP cells was assessed by tetrazolium dye reduction (Mosmann, 1983, which is incorporated herein by reference). […] After a total incubation time of 6 days at 37° C., 50 μL of a stock solution at 3 mg/ml of the tetrazolium dye, 3-(4,5-dimethylthiazol-2-yl)-2,5-diphenyltetrazolium bromide (MTT, Sigma Chemical) were added to each well, the plates incubated at 37° C. for 4 hours, whereupon the medium was removed, the formazan product dissolved in DMSO (50-100 μL) and absorbance values at 570 nm was measured using a microplate reader (Molecular Devices, Sunnyvale, CA). Absorbance values were corrected for background and then normalized to wells containing untreated cells to allow plate-to-plate comparisons. […]
The anti-proliferative effects of conjugates 4 and 5 were assessed with platinum sensitive human ovarian A2780 cells and the isogenic cisplatin resistant 2780CP cell line. […]

A2780 cancer cells = assay: MTT antiproliferative assay of Pt(IV), MGd and MGd+Pt(IV) on A2780 cancer cells; type: cell-based; conditions: agent alone, read-out: IC50 (growth inhibition), single agent
Protocol: A2780 cancer cells were incubated (37° C., 5% CO2 atmosphere, dark) in 96-wells plates at a concentration of 600 cells/well, in a culture medium containing 10% fetal bovine serum and supplemented with penicillin and streptomycin. After 15 h, drugs (Pt(IV), MGd, MGd+Pt(IV)) were added to cells (gradient of concentration, from 0 to 200 μM, 3-fold dilutions) and plates were incubated for five more days using the above conditions. After five days, MTT dye was added in each well (0.15 mg/well) and plates were left for 4 hours in the incubator. Then, supernatant was carefully removed and 50 μL of DMSO were added to dissolve MTT purple formazan crystals. The absorbance was read at 570 nm using a plate reader.

Row | IC50 (A2780 cancer cells) [µM] | SMILES | IC50 (A2780 cells) [µM] | IC50 (2780CP cells [1]) [µM] | Resistance factor = IC50(2780CP)/IC50(A2780) (2780CP cells [2])
1 | – | N.N.[Cl][Pt][Cl] [Cisplatin] | 0.33 | 7.3 | 18.25
2 | 78 | CC(=O)[O-].CC(=O)[O-].CCc1c(CC)c2cc3nc(cnc4cc(OCCOCCOCCOC)c(OCCOCCOCCOC)cc4ncc4nc(cc1[n-]2)C(CCCO)=C4C)C(C)=C3CCCO.[Gd+3] [Compound 1, motexafin gadolinium] | – | – | –
